Laboratory results: patent publication US11780839B2, “Compounds for treating Huntington's disease” (PTC THERAPEUTICS, INC., priority 2018, dated 2023)

System: Endogenous Huntingtin Protein
Test: Endogenous Huntingtin Protein Assay (ELISA-based Meso Scale Discovery electrochemiluminescence)
Type: cell-based
Conditions: MSD electrochemiluminescence, Table 1
Outline: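 Sandwich MSD electrochemiluminescence immunoassay. Capture used MW1 (expanded polyglutamine) or MAB2166 antibody coated at 1 μg/mL overnight at 4 °C. Samples were bound overnight at 4 °C, then a rabbit monoclonal detection antibody and SULFO-TAG anti-rabbit, each at 0.25 μg/mL, were applied for 1 h at room temperature.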

Row | Compound | IC50 [nM]
1 | Oc1cc(-c2cn[nH]c2)ccc1-c1cnc(N2CC[C@@H](NC3CCC3)C2)nn1 [Cpd 399, 2-{3-[(3R)-3-(cyclobutylamino)pyrrolidin-1-yl]-1,2,4-triazin-6-yl}-5-(1H-pyrazol-4-yl)phenol] | ≤ 100
2 | Oc1cc(-c2cn[nH]c2)ccc1-c1cnc(N2CC[C@H](NC3CCC3)C2)nn1 [Cpd 400, 2-{3-[(3S)-3-(cyclobutylamino)pyrrolidin-1-yl]-1,2,4-triazin-6-yl}-5-(1H-pyrazol-4-yl)phenol] | ≤ 100
3 | CC1(C)CC(Nc2cnc(-c3ccc(-n4nccn4)cc3O)nn2)CC(C)(C)N1 [Cpd 401, 2-{6-[(2,2,6,6-tetramethylpiperidin-4-yl)amino]-1,2,4-triazin-3-yl}-5-(2H-1,2,3-triazol-2-yl)phenol] | ≤ 100
4 | CN(c1cnc(-c2ccc(-c3ncccn3)cc2O)nn1)C1CC(C)(C)NC(C)(C)C1 [Cpd 402, 2-{6-[methyl(2,2,6,6-tetramethylpiperidin-4-yl)amino]-1,2,4-triazin-3-yl}-5-(pyrimidin-2-yl)phenol] | ≤ 100
5 | Oc1cc(-c2cn[nH]c2)ccc1-c1cnc(N2CCC(CNC3CCOCC3F)C2)nn1 (centres unmarked) [Cpd 403, 2-[3-(3-{[(3-fluorooxan-4-yl)amino]methyl}pyrrolidin-1-yl)-1,2,4-triazin-6-yl]-5-(1H-pyrazol-4-yl)phenol] | ≤ 100
6 | Oc1cc(-c2cn[nH]c2)ccc1-c1cnc(N2CCC(CNC3CCCOC3)C2)nn1 (centres unmarked) [Cpd 404, 2-[3-(3-{[(oxan-3-yl)amino]methyl}pyrrolidin-1-yl)-1,2,4-triazin-6-yl]-5-(1H-pyrazol-4-yl)phenol] | ≤ 100
7 | Oc1cc(-c2cn[nH]c2)ccc1-c1cnc(N2CCC(CNC3CC4CCC(C3)O4)C2)nn1 (centres unmarked) [Cpd 405, 2-[3-(3-{[(8-oxabicyclo[3.2.1]octan-3-yl)amino]methyl}pyrrolidin-1-yl)-1,2,4-triazin-6-yl]-5-(1H-pyrazol-4-yl)phenol] | ≤ 100
8 | Cn1cc(-c2ccc(-c3cnc(N4CC[C@@H](NC5CCC5)C4)nn3)c(O)c2)cn1 [Cpd 406, 2-{3-[(3R)-3-(cyclobutylamino)pyrrolidin-1-yl]-1,2,4-triazin-6-yl}-5-(1-methyl-1H-pyrazol-4-yl)phenol] | ≤ 100
9 | Cn1cc(-c2ccc(-c3cnc(N4CC[C@H](NC5CCC5)C4)nn3)c(O)c2)cn1 [Cpd 407, 2-{3-[(3S)-3-(cyclobutylamino)pyrrolidin-1-yl]-1,2,4-triazin-6-yl}-5-(1-methyl-1H-pyrazol-4-yl)phenol] | ≤ 100
10 | CN(c1ncc(-c2ccc(-c3cnn(C)c3)cc2O)nn1)[C@H]1C[C@]2(C)CC[C@](C)(C1)N2 [Cpd 408] | ≤ 100
11 | Oc1cc(-c2cn[nH]c2)ccc1-c1cnc(N2CCC(NC3CCC(F)(F)C3)C2)nn1 (centres unmarked) [Cpd 409, 2-(3-{3-[(3,3-difluorocyclopentyl)amino]pyrrolidin-1-yl}-1,2,4-triazin-6-yl)-5-(1H-pyrazol-4-yl)phenol] | ≤ 100
12 | CN(C)CC1CCN(c2ncc(-c3ccc(-c4cn[nH]c4)cc3O)nn2)C1 (centres unmarked) [Cpd 410, 2-(3-{3-[(dimethylamino)methyl]pyrrolidin-1-yl}-1,2,4-triazin-6-yl)-5-(1H-pyrazol-4-yl)phenol] | ≤ 100
13 | CN(c1cnc(-c2ccc(-c3ccncn3)cc2O)nn1)C1CC(C)(C)NC(C)(C)C1 [Cpd 411, 2-{6-[methyl(2,2,6,6-tetramethylpiperidin-4-yl)amino]-1,2,4-triazin-3-yl}-5-(pyrimidin-4-yl)phenol] | ≤ 100
14 | CN(c1cnc(-c2ccc(-c3cnccn3)cc2O)nn1)C1CC(C)(C)NC(C)(C)C1 [Cpd 412, 2-{6-[methyl(2,2,6,6-tetramethylpiperidin-4-yl)amino]-1,2,4-triazin-3-yl}-5-(pyrazin-2-yl)phenol] | ≤ 100
15 | CNCC1CCN(c2ncc(-c3ccc(-c4cn[nH]c4)cc3O)nn2)C1 (centres unmarked) [Cpd 413, 2-(3-{3-[(methylamino)methyl]pyrrolidin-1-yl}-1,2,4-triazin-6-yl)-5-(1H-pyrazol-4-yl)phenol] | ≤ 100
16 | CC(C)NC(C)C1CCN(c2ncc(-c3ccc(-c4cn[nH]c4)cc3O)nn2)C1 (centres unmarked) [Cpd 414, 2-[3-(3-{1-[(propan-2-yl)amino]ethyl}pyrrolidin-1-yl)-1,2,4-triazin-6-yl]-5-(1H-pyrazol-4-yl)phenol] | ≤ 100
17 | Oc1cc(-c2cn[nH]c2)ccc1-c1cnc(N2CCC(CNC3CCC3)C2)nn1 (centres unmarked) [Cpd 415, 2-(3-{3-[(cyclobutylamino)methyl]pyrrolidin-1-yl}-1,2,4-triazin-6-yl)-5-(1H-pyrazol-4-yl)phenol] | ≤ 100
18 | Cn1cc(-c2ccc(-c3cnc(N4CCC(CNC5CCC5)C4)nn3)c(O)c2)cn1 (centres unmarked) [Cpd 416, 2-(3-{3-[(cyclobutylamino)methyl}pyrrolidin-1-yl}-1,2,4-triazin-6-yl)-5-(1-methyl-1H-pyrazol-4-yl)phenol] | ≤ 100
19 | CN(c1ncc(-c2ccc(-n3nccn3)cc2O)nn1)[C@H]1C[C@]2(C)CC[C@](C)(C1)N2 [Cpd 417] | ≤ 100
20 | CC(C)(C)NC1CCN(c2ncc(-c3ccc(-c4cn[nH]c4)c(F)c3O)nn2)C1 (centres unmarked) [Cpd 418, 6-{3-[3-(tert-butylamino)pyrrolidin-1-yl]-1,2,4-triazin-6-yl}-2-fluoro-3-(1H-pyrazol-4-yl)phenol] | ≤ 100
21 | CC1(C)CC(Oc2cnc(-c3ccc(-c4cn[nH]c4)cc3O)nn2)CC(C)(C)N1 [Cpd 419, 5-(1H-pyrazol-4-yl)-2-{6-[(2,2,6,6-tetramethylpiperidin-4-yl)oxy]-1,2,4-triazin-3-yl}phenol] | ≤ 100
22 | Oc1cc(-c2cn[nH]c2)ccc1-c1cnc(N2CCC(NC3CCC(F)C3)C2)nn1 (centres unmarked) [Cpd 420, 2-(3-{3-[(3-fluorocyclopentyl)amino]pyrrolidin-1-yl}-1,2,4-triazin-6-yl)-5-(1H-pyrazol-4-yl)phenol] | ≤ 100
23 | Oc1cc(-c2cn[nH]c2)ccc1-c1cnc(N2CCC(C3(NC4CCOCC4)CC3)C2)nn1 (centres unmarked) [Cpd 421, 2-[3-(3-{1-[(oxan-4-yl)amino]cyclopropyl}pyrrolidin-1-yl)-1,2,4-triazin-6-yl]-5-(1H-pyrazol-4-yl)phenol] | ≤ 100
24 | CC(C)NC1(C)CCN(c2ncc(-c3ccc(-c4cnn(C)c4)cc3O)nn2)C1 (centres unmarked) [Cpd 422] | ≤ 100
25 | CC1(C)CC(Nc2cnc(-c3ccc(-c4cn[nH]c4)cc3O)nn2)C(F)C(C)(C)N1 (centres unmarked) [Cpd 423, 2-{6-[(3-fluoro-2,2,6,6-tetramethylpiperidin-4-yl)amino]-1,2,4-triazin-3-yl}-5-(1H-pyrazol-4-yl)phenol] | ≤ 100
26 | [2H]C([2H])([2H])n1cc(-c2ccc(-c3ncc(NC4CC(C)(C)NC(C)(C)C4)nn3)c(O)c2)cn1 [Cpd 424, 5-[1-(^2H3)methyl-1H-pyrazol-4-yl]-2-{6-[(2,2,6,6-tetramethylpiperidin-4-yl)amino]-1,2,4-triazin-3-yl}phenol] | ≤ 100
